In patent US10710978B2, “STK4 inhibitors for treatment of hematologic malignancies” (Dana-Farber Cancer Institute, Inc., priority 2015, dated 2020) one finds IC50 data, which are given here for 33 compounds.

Structures are written as SMILES.

STK4 (MST1), sequence (Q13043 whole entry): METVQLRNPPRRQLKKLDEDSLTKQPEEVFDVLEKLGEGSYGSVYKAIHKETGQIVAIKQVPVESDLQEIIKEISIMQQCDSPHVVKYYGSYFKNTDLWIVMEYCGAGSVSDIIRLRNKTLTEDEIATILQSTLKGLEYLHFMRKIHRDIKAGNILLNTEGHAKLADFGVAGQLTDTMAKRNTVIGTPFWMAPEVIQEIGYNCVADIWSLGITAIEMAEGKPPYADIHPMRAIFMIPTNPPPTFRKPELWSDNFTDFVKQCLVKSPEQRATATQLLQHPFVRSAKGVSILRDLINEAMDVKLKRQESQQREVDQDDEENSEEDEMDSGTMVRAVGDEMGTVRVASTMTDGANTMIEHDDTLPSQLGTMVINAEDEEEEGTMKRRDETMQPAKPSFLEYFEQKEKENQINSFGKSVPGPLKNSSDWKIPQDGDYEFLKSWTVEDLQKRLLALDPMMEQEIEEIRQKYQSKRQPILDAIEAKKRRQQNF

In the assay the target is STK4 (MST1) (Homo sapiens (Human), UniProt Q13043). The assay is described as follows: Z-lyte biochemical IC50 assay (Invitrogen). The note with it: ATP concentration matched the Km. The method, then:
STK4 (MST1), STK3 (MST2); STK24 (MST3) and MST4 Assays
Biochemical IC50s were measured at Invitrogen using Z-lyte technology. Briefly, for STK4, the 2×STK4 (MST1)/Ser/Thr 07 mixture was prepared in 50 mM HEPES pH 7.5, 0.01% BRIJ35, 10 mM MgCl2, 1 mM EGTA. The final 10 μL Kinase Reaction consisted of 6.25-160 ng STK4 (MST1) and 2 μM Ser/Thr 07 in 50 mM HEPES pH 7.5, 0.01% BRIJ-35, 10 mM MgCl2, 1 mM EGTA. After the 1 hour Kinase Reaction incubation, 5 μL of a 1:100000 dilution of Development Reagent A was added. Compounds were screened in a 10 point titration with 3-fold serial dilutions starting at a concentration of 10 μM. The biochemical IC50s against other STK family members were measured similarly. The ATP concentration used matched the Km for each kinase.
The IC50 is the concentration that inhibits the measured activity by half. A higher IC50 goes with a need for much substance. Turning to `Cc1cc(N2CCOCC2)cc2[nH]c(-c3c(NC[C@@H](O)c4cccc(Cl)c4)cc[nH]c3=O)nc12` [BMS536924, reference compound], the IC50 lay in the range of 40 to 200 nM.
Under `Nc1ncc(-c2cc(F)ccc2[N+](=O)[O-])cc1-c1ccc2c(c1)CCNC2=O` [Compound I-7, 6-(2-amino-5-(5-fluoro-2-nitrophenyl)pyridin-3-yl)-3,4-dihydroisoquinolin-1(2H)-one] stands more than 900 nM; under `COc1ccncc1-c1cnc(N)c(-c2ccc3c(c2)CCNC3=O)c1` [Compound I-8, 6-(6-amino-4′-methoxy-[3,3′-bipyridin]-5-yl)-3,4-dihydroisoquinolin-1(2H)-one], more than 900 nM; under `N#Cc1cc(-c2cc(-c3cc([N+](=O)[O-])ccc3F)cnc2N)ccc1O` [Compound I-11, 5-(2-amino-5-(2-fluoro-5-nitrophenyl)pyridin-3-yl)-2-hydroxybenzonitrile], more than 900 nM.
The compound `Cn1cnc2c(-c3cnc(N)c(-c4ccc5c(c4)CCNC5=O)c3)cccc21` [Compound I-14, 6-(2-amino-5-(1-methyl-1H-benzo[d]imidazol-4-yl)pyridin-3-yl)-3,4-dihydroisoquinolin-1(2H)-one] registered an IC50 of 40 to 200 nM.
Turning to `Nc1ncc(-c2cc(F)cc([N+](=O)[O-])c2)cc1-c1ccc2c(c1)CCNC2=O` [Compound I-17, 6-(2-amino-5-(3-fluoro-5-nitrophenyl)pyridin-3-yl)-3,4-dihydroisoquinolin-1(2H)-one], the IC50 lay in the range of 40 to 200 nM.
As for `Nc1ncc(-c2cc([N+](=O)[O-])cc(F)c2F)cc1-c1ccc2c(c1)CCNC2=O` [Compound I-18, 6-(2-amino-5-(2,3-difluoro-5-nitrophenyl)pyridin-3-yl)-3,4-dihydroisoquinolin-1(2H)-one], the IC50 was 40 to 200 nM.
Compound `NC(=O)c1ccc(-c2cc(-c3cc([N+](=O)[O-])ccc3F)cnc2N)cc1Cl` [Compound I-30, 4-(2-amino-5-(2-fluoro-5-nitrophenyl)pyridin-3-yl)-2-chlorobenzamide] gave a half-inhibitory concentration (IC50) of 200 to 900 nM.
In turn, `NC(=O)c1ccc(-c2cc(-c3cc([N+](=O)[O-])ccc3F)cnc2N)cc1` [Compound I-31, 4-(2-amino-5-(2-fluoro-5-nitrophenyl)pyridin-3-yl)benzamide] yielded an IC50 of 200 to 900 nM.
Consider `Nc1ncc(-c2cc([N+](=O)[O-])cnc2F)cc1-c1ccc2c(c1)CCNC2=O` [Compound I-39, 6-(6-amino-2′-fluoro-5′-nitro-[3,3′-bipyridin]-5-yl)-3,4-dihydroisoquinolin-1(2H)-one], for which the IC50 is 200 to 900 nM.
As for `Nc1ncc(-c2ccc3ncsc3c2)cc1-c1ccc2c(c1)CCNC2=O` [Compound I-44, 6-(2-amino-5-(benzo[d]thiazol-6-yl)pyridin-3-yl)-3,4-dihydroisoquinolin-1(2H)-one], the concentration for half-maximal inhibition (IC50) fell in the range of 40 to 200 nM.
On to `C#Cc1cc(F)c(-c2cnc(N)c(-c3ccc4c(c3)CCNC4=O)c2)cc1[N+](=O)[O-]` [Compound I-45, 6-(2-amino-5-(4-ethynyl-2-fluoro-5-nitrophenyl)pyridin-3-yl)-3,4-dihydroisoquinolin-1(2H)-one], for which the IC50 fell in the range of 40 to 200 nM.
With `CCOc1cc(S(=O)(=O)N(C)C2CC2)ccc1-c1cnc(N)c(-c2ccc3c(c2)CCNC3=O)c1` [Compound I-47, 4-(6-amino-5-(1-oxo-1,2,3,4-tetrahydroisoquinolin-6-yl)pyridin-3-yl)-N-cyclopropyl-3-ethoxy-N-methylbenzenesulfonamide], the IC50 was less than 40 nM.
`CC(C)Oc1cc(S(=O)(=O)N(C)C2CC2)ccc1-c1cnc(N)c(-c2ccc3c(c2)CCNC3=O)c1` [Compound I-48, 4-(6-amino-5-(1-oxo-1,2,3,4-tetrahydroisoquinolin-6-yl)pyridin-3-yl)-N-cyclopropyl-3-isopropoxy-N-methylbenzenesulfonamide] returned an IC50 of less than 40 nM.
Regarding `COc1cc(S(=O)(=O)NC2CC2)ccc1-c1cnc(N)c(-c2ccc3c(c2)CCNC3=O)c1` [Compound I-49, 4-(6-amino-5-(1-oxo-1,2,3,4-tetrahydroisoquinolin-6-yl)pyridin-3-yl)-N-cyclopropyl-3-methoxybenzenesulfonamide], the IC50 was less than 40 nM.
Compound `COc1cc(S(=O)(=O)N(C)C2CCCCC2)ccc1-c1cnc(N)c(-c2ccc3c(c2)CCNC3=O)c1` [Compound I-52, 4-(6-amino-5-(1-oxo-1,2,3,4-tetrahydroisoquinolin-6-yl)pyridin-3-yl)-N-cyclohexyl-3-methoxy-N-methylbenzenesulfonamide] showed an IC50 of 40 to 200 nM.
Turning to `COc1cc(S(=O)(=O)N(C)C2CCOCC2)ccc1-c1cnc(N)c(-c2ccc3c(c2)CCNC3=O)c1` [Compound I-53, 4-(6-amino-5-(1-oxo-1,2,3,4-tetrahydroisoquinolin-6-yl)pyridin-3-yl)-3-methoxy-N-methyl-N-(tetrahydro-2H-pyran-4-yl)benzenesulfonamide], the IC50 lay in the range of 40 to 200 nM.
`Nc1ncc(-c2ccc([N+](=O)[O-])cc2F)cc1-c1ccc2c(c1)CCNC2=O` [Compound I-54, 6-(2-amino-5-(2-fluoro-4-nitrophenyl)pyridin-3-yl)-3,4-dihydroisoquinolin-1(2H)-one] registered an IC50 of 40 to 200 nM.
In turn, `Nc1ncc(-c2cccc3scnc23)cc1-c1ccc2c(c1)CCNC2=O` [Compound I-55, 6-(2-amino-5-(benzo[d]thiazol-4-yl)pyridin-3-yl)-3,4-dihydroisoquinolin-1(2H)-one] registered a half-inhibitory concentration (IC50) of 40 to 200 nM.
`Nc1ncc(-c2cncc3ncsc23)cc1-c1ccc2c(c1)CCNC2=O` [Compound I-56, 6-(2-amino-5-(thiazolo[4,5-c]pyridin-7-yl)pyridin-3-yl)-3,4-dihydroisoquinolin-1(2H)-one] came in with an IC50 of 200 to 900 nM.
For `Nc1ncc(-c2ccc(F)c3ncsc23)cc1-c1ccc2c(c1)CCNC2=O` [Compound I-57, 6-(2-amino-5-(4-fluorobenzo[d]thiazol-7-yl)pyridin-3-yl)-3,4-dihydroisoquinolin-1(2H)-one], the IC50 was less than 40 nM.
Turning to `Nc1ncc(-c2cccc(NS(=O)(=O)C3CC3)c2)cc1-c1ccc2c(c1)CCNC2=O` [Compound I-58, N-(3-(6-amino-5-(1-oxo-1,2,3,4-tetrahydroisoquinolin-6-yl)pyridin-3-yl)phenyl) cyclopropanesulfonamide], the IC50 was less than 40 nM.
`Nc1ncc(-c2cccc(-c3nccs3)c2)cc1-c1ccc2c(c1)CCNC2=O` [Compound I-59, 6-(2-amino-5-(3-(thiazol-2-yl)phenyl)pyridin-3-yl)-3,4-dihydroisoquinolin-1(2H)-one] returned an IC50 of less than 40 nM.
Compound `COc1cc(-c2nccs2)ccc1-c1cnc(N)c(-c2ccc3c(c2)CCNC3=O)c1` [Compound I-60, 6-(2-amino-5-(2-methoxy-4-(thiazol-2-yl)phenyl)pyridin-3-yl)-3,4-dihydroisoquinolin-1(2H)-one] came in with a half-inhibitory concentration (IC50) of 40 to 200 nM.
Compound `COc1cc(C#N)ccc1-c1cnc(N)c(-c2ccc3c(c2)CCNC3=O)c1` [Compound I-61, 4-(6-amino-5-(1-oxo-1,2,3,4-tetrahydroisoquinolin-6-yl)pyridin-3-yl)-3-methoxybenzonitrile] yielded a half-inhibitory concentration (IC50) of less than 40 nM.
To `CN1CCc2cc(-c3cc(-c4ccc(S(=O)(=O)N(C)C5CC5)cc4F)cnc3N)ccc2C1=O` [Compound I-62, 4-(6-amino-5-(2-methyl-1-oxo-1,2,3,4-tetrahydroisoquinolin-6-yl)pyridin-3-yl)-N-cyclopropyl-3-fluoro-N-methylbenzenesulfonamide] belongs less than 40 nM; to `CN(C1CC1)S(=O)(=O)c1ccc(-c2cnc(N)c(-c3ccc4c(=O)[nH]cnc4c3)c2)c(F)c1` [Compound I-63, 4-(6-amino-5-(4-oxo-3,4-dihydroquinazolin-7-yl)pyridin-3-yl)-N-cyclopropyl-3-fluoro-N-methylbenzenesulfonamide], less than 40 nM.
As for `Nc1ncc(-c2cccc3ncsc23)cc1-c1ccc2c(=O)[nH]cnc2c1` [Compound I-64, 7-(2-amino-5-(benzo[d]thiazol-7-yl)pyridin-3-yl)quinazolin-4(3H)-one], the IC50 lay within 40 to 200 nM.
In turn, `Nc1ncc(-c2ccc(NS(=O)(=O)C3CC3)cc2OCc2ccccc2)cc1-c1ccc2c(c1)CCNC2=O` [Compound I-66, N-(4-(6-amino-5-(1-oxo-1,2,3,4-tetrahydroisoquinolin-6-yl)pyridin-3-yl)-3-(benzyloxy)phenyl) cyclopropanesulfonamide] returned an IC50 of 40 to 200 nM.
In turn, `CC(C)Oc1cc(NS(=O)(=O)C2CC2)ccc1-c1cnc(N)c(-c2ccc3c(c2)CCNC3=O)c1` [Compound I-67, N-(4-(6-amino-5-(1-oxo-1,2,3,4-tetrahydroisoquinolin-6-yl)pyridin-3-yl)-3-isopropoxyphenyl) cyclopropanesulfonamide] came in with an IC50 of less than 40 nM.
On to `CC(C)Oc1cc(S(=O)(=O)N(C)C2CC2)ccc1-c1cnc(N)c(-c2ccc3c(c2)CNC3=O)c1` [Compound I-68, 4-(6-amino-5-(1-oxoisoindolin-5-yl)pyridin-3-yl)-N-cyclopropyl-3-isopropoxy-N-methylbenzenesulfonamide], for which the half-maximal inhibitory concentration (IC50) is less than 40 nM.
In turn, `Nc1ncc(-c2ccc(NS(=O)(=O)C3CC3)cc2OC2CCCC2)cc1-c1ccc2c(c1)CCNC2=O` [Compound I-69, N-(4-(6-amino-5-(1-oxo-1,2,3,4-tetrahydroisoquinolin-6-yl)pyridin-3-yl)-3-(cyclopentyloxy)phenyl) cyclopropanesulfonamide] yielded a half-maximal inhibitory concentration (IC50) of less than 40 nM.
Compound `Nc1ncc(-c2ccc(F)c3ncsc23)cc1-c1ccc2c(c1)CNC2=O` [Compound I-70, 5-(2-amino-5-(4-fluorobenzo[d]thiazol-7-yl)pyridin-3-yI)isoindolin-1-one] returned a concentration for half-maximal inhibition (IC50) of 40 to 200 nM.
